Reference: PubChem BioAssay (NCI)
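Following 48 hours of exposure in 96-well plates, responses at five concentrations were used to interpolate endpoints linearly. The concentration for 50% growth inhibition is given as GI50. At the TGI there is no net growth.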

What was measured:
Experiment in all cases: inhibition of tumour cell growth, NCI panel, 48 h
A549 NSCLC = test system: A549 NSCLC
HOP-92 NSCLC = test system: HOP-92 NSCLC
MOLT-4 leukemia = test system: MOLT-4 leukemia
NCI-H226 lung = test system: NCI-H226 lung
OVCAR-8 ovarian = test system: OVCAR-8 ovarian
SF-295 CNS = test system: SF-295 CNS
SK-OV-3 ovarian = test system: SK-OV-3 ovarian
TK-10 renal = test system: TK-10 renal
K-562 leukemia = test system: K-562 leukemia

CCCCCCCCCCCCCCCC(=O)NCC(COP(=O)([O-])OCC[N+](C)(C)C)OCC (configuration not stated) was tested, and the TGI (A549 NSCLC) was 45.7 µM, the TGI (HOP-92 NSCLC) was 15.6 µM and the TGI (MOLT-4 leukemia) was 10.1 µM. The TGI (NCI-H226 lung) was 13.6 µM, the TGI (OVCAR-8 ovarian) was 17.2 µM and the TGI (SF-295 CNS) was 18.6 µM. For the same molecule, the TGI (SK-OV-3 ovarian) was 42.6 µM and the TGI (TK-10 renal) was 3.95 µM.

For CCOC(=O)CC1=Nc2ccccc2SC1, the TGI (A549 NSCLC) was greater than 100 µM, the TGI (HOP-92 NSCLC) was greater than 100 µM and the TGI (MOLT-4 leukemia) was greater than 100 µM. It also gave a TGI (NCI-H226 lung) greater than 100 µM, a TGI (OVCAR-8 ovarian) greater than 100 µM and a TGI (SF-295 CNS) greater than 100 µM. It also gave a TGI (TK-10 renal) greater than 100 µM.

CCCCCCCCCCCCC(=O)OC(c1cnco1)c1nc(C(O)CC(O)C(O)C(C)O)co1 (configuration not stated) showed a GI50 (A549 NSCLC) of 0.88 µM, a TGI (A549 NSCLC) greater than 100 µM and a GI50 (HOP-92 NSCLC) of 1.62 µM. For the same molecule, the TGI (HOP-92 NSCLC) was greater than 100 µM, the GI50 (K-562 leukemia) was 0.426 µM and the TGI (K-562 leukemia) was greater than 100 µM. It also gave a GI50 (MOLT-4 leukemia) of 0.537 µM, a TGI (MOLT-4 leukemia) of 5.14 µM and a GI50 (NCI-H226 lung) of 0.28 µM. The GI50 (OVCAR-8 ovarian) was 0.849 µM, the TGI (OVCAR-8 ovarian) was greater than 55.7 µM and the GI50 (SF-295 CNS) was 1.52 µM. The TGI (SF-295 CNS) was 98.3 µM, the GI50 (SK-OV-3 ovarian) was 4.64 µM and the TGI (SK-OV-3 ovarian) was greater than 100 µM. The GI50 (TK-10 renal) was 5.04 µM and the TGI (TK-10 renal) was greater than 76.5 µM.

Work on O=C1NC2(CCCC2)C(=O)C12CCCC2 yielded a TGI (A549 NSCLC) greater than 100 µM, a TGI (HOP-92 NSCLC) greater than 100 µM and a TGI (K-562 leukemia) greater than 100 µM. The TGI (MOLT-4 leukemia) was greater than 100 µM, the TGI (OVCAR-8 ovarian) was greater than 100 µM and the TGI (SF-295 CNS) was greater than 100 µM. For the same molecule, the TGI (SK-OV-3 ovarian) was greater than 100 µM and the TGI (TK-10 renal) was greater than 100 µM.

With C1COCCN1.C1COCCN1.N.N.[Cl-].[Pt+2] the GI50 (A549 NSCLC) was greater than 100 µM, the TGI (A549 NSCLC) was greater than 100 µM and the GI50 (NCI-H226 lung) was greater than 100 µM. The TGI (NCI-H226 lung) was greater than 100 µM, the GI50 (OVCAR-8 ovarian) was greater than 100 µM and the TGI (OVCAR-8 ovarian) was greater than 100 µM. The GI50 (SF-295 CNS) was greater than 100 µM, the TGI (SF-295 CNS) was greater than 100 µM and the GI50 (TK-10 renal) was greater than 100 µM. For the same molecule, the TGI (TK-10 renal) was greater than 100 µM.

O=c1[nH]c2ccccc2cc1C(Cl)=C(Cl)Cl was tested, and the TGI (A549 NSCLC) was greater than 100 µM, the TGI (HOP-92 NSCLC) was greater than 100 µM and the TGI (K-562 leukemia) was greater than 100 µM. For the same molecule, the TGI (MOLT-4 leukemia) was greater than 100 µM, the TGI (NCI-H226 lung) was greater than 100 µM and the TGI (OVCAR-8 ovarian) was greater than 100 µM. The TGI (SF-295 CNS) was greater than 100 µM, the TGI (SK-OV-3 ovarian) was greater than 100 µM and the TGI (TK-10 renal) was greater than 100 µM.

FC(F)(F)c1nc(-c2ccccc2Cl)[nH]c1C(F)(F)F was tested, and the TGI (A549 NSCLC) was 3.06 µM, the TGI (HOP-92 NSCLC) was 1.22 µM and the TGI (K-562 leukemia) was 4.29 µM. The TGI (MOLT-4 leukemia) was greater than 29.5 µM, the TGI (NCI-H226 lung) was 3.54 µM and the TGI (OVCAR-8 ovarian) was 6.14 µM. It also gave a TGI (SF-295 CNS) of 2.03 µM, a TGI (SK-OV-3 ovarian) of 2.45 µM and a TGI (TK-10 renal) of 14.5 µM.

For COc1cc2c(c3c1C=CCO3)C(=O)c1ccccc1C2=O, the TGI (A549 NSCLC) was greater than 100 µM, the TGI (HOP-92 NSCLC) was greater than 100 µM and the TGI (K-562 leukemia) was greater than 100 µM. For the same molecule, the TGI (MOLT-4 leukemia) was 79.2 µM, the TGI (NCI-H226 lung) was 97.8 µM and the TGI (OVCAR-8 ovarian) was greater than 100 µM. For the same molecule, the TGI (SF-295 CNS) was greater than 100 µM, the TGI (SK-OV-3 ovarian) was greater than 100 µM and the TGI (TK-10 renal) was greater than 100 µM.

With Cc1cc2c(cc1C)[n+](=O)c(C(=O)C/C(=N/NC(=O)c1ccccc1O)C(=O)Nc1ccccc1C(C)C)c(C)n2[O-] the TGI (A549 NSCLC) was greater than 100 µM, the TGI (K-562 leukemia) was greater than 100 µM and the TGI (MOLT-4 leukemia) was 77.1 µM. It also gave a TGI (NCI-H226 lung) greater than 100 µM, a TGI (OVCAR-8 ovarian) greater than 100 µM and a TGI (SF-295 CNS) greater than 100 µM. It also gave a TGI (SK-OV-3 ovarian) greater than 100 µM and a TGI (TK-10 renal) greater than 100 µM.

With COC(=O)C(c1[nH]nc2ccccc12)C(C(=O)OC)c1[nH]nc2ccccc12 (configuration not stated) the TGI (A549 NSCLC) was greater than 100 µM, the TGI (K-562 leukemia) was greater than 100 µM and the TGI (MOLT-4 leukemia) was 82.5 µM. The TGI (NCI-H226 lung) was greater than 100 µM, the TGI (OVCAR-8 ovarian) was 77.6 µM and the TGI (SF-295 CNS) was greater than 100 µM. For the same molecule, the TGI (SK-OV-3 ovarian) was greater than 100 µM and the TGI (TK-10 renal) was greater than 100 µM.

CCOc1ccc(NC(=O)CC2Sc3ccccc3NC2=O)cc1 (configuration not stated) showed a TGI (A549 NSCLC) greater than 100 µM, a TGI (K-562 leukemia) greater than 100 µM and a TGI (MOLT-4 leukemia) greater than 100 µM. It also gave a TGI (NCI-H226 lung) greater than 100 µM, a TGI (OVCAR-8 ovarian) of 42.9 µM and a TGI (SF-295 CNS) greater than 100 µM. For the same molecule, the TGI (SK-OV-3 ovarian) was greater than 100 µM and the TGI (TK-10 renal) was greater than 100 µM.

Molecule CSC1=NC=CCN1C has a TGI (A549 NSCLC) greater than 100 µM, a TGI (K-562 leukemia) greater than 100 µM and a TGI (MOLT-4 leukemia) greater than 100 µM. It also gave a TGI (NCI-H226 lung) greater than 100 µM, a TGI (OVCAR-8 ovarian) greater than 100 µM and a TGI (SF-295 CNS) greater than 100 µM. For the same molecule, the TGI (SK-OV-3 ovarian) was greater than 100 µM and the TGI (TK-10 renal) was greater than 100 µM.

Work on Cn1cc(NC(=O)c2cc(NC(=O)CCCCCCCCCCC(=O)Nc3cc(C(=O)Nc4cc(C(=O)NCCC(=N)N)n(C)c4)n(C)c3)cn2C)cc1C(=O)NCCC(=N)N yielded a TGI (A549 NSCLC) greater than 100 µM, a TGI (K-562 leukemia) greater than 100 µM and a TGI (MOLT-4 leukemia) greater than 100 µM. It also gave a TGI (NCI-H226 lung) greater than 100 µM, a TGI (OVCAR-8 ovarian) of 53.5 µM and a TGI (SF-295 CNS) greater than 100 µM. It also gave a TGI (SK-OV-3 ovarian) greater than 100 µM and a TGI (TK-10 renal) of 87.9 µM.

With Cc1cc(=O)cc2sc3c(C)cccc3nc1-2 the TGI (A549 NSCLC) was greater than 100 µM, the TGI (HOP-92 NSCLC) was 85.9 µM and the TGI (K-562 leukemia) was 91.2 µM. The TGI (MOLT-4 leukemia) was 93.3 µM, the TGI (OVCAR-8 ovarian) was greater than 100 µM and the TGI (SF-295 CNS) was greater than 100 µM. For the same molecule, the TGI (SK-OV-3 ovarian) was greater than 100 µM and the TGI (TK-10 renal) was 77.4 µM.

CCOC(=O)C1(CC)CCCCC(=O)N1 (configuration not stated) gave a TGI (A549 NSCLC) greater than 100 µM, a TGI (HOP-92 NSCLC) greater than 100 µM and a TGI (K-562 leukemia) greater than 100 µM. The TGI (OVCAR-8 ovarian) was greater than 100 µM, the TGI (SF-295 CNS) was greater than 100 µM and the TGI (SK-OV-3 ovarian) was greater than 100 µM. For the same molecule, the TGI (TK-10 renal) was greater than 100 µM.

With O=[N+]([O-])[C@@H]1C2C=CC(C2)[C@H]1Cl (some centres not stated) the TGI (A549 NSCLC) was greater than 100 µM, the TGI (HOP-92 NSCLC) was greater than 100 µM and the TGI (K-562 leukemia) was greater than 100 µM. For the same molecule, the TGI (MOLT-4 leukemia) was greater than 100 µM, the TGI (OVCAR-8 ovarian) was greater than 100 µM and the TGI (SF-295 CNS) was greater than 100 µM. It also gave a TGI (SK-OV-3 ovarian) greater than 100 µM and a TGI (TK-10 renal) greater than 100 µM.

Molecule CCOC(=O)C1=C(C)Nc2ccccc2S1 has a TGI (A549 NSCLC) greater than 100 µM, a TGI (HOP-92 NSCLC) greater than 100 µM and a TGI (K-562 leukemia) greater than 100 µM. For the same molecule, the TGI (MOLT-4 leukemia) was greater than 100 µM, the TGI (NCI-H226 lung) was greater than 100 µM and the TGI (SF-295 CNS) was greater than 100 µM. For the same molecule, the TGI (SK-OV-3 ovarian) was greater than 100 µM and the TGI (TK-10 renal) was greater than 100 µM.

Work on O=C1CCCN(c2ccccc2)N1 yielded a TGI (A549 NSCLC) greater than 100 µM, a TGI (K-562 leukemia) greater than 100 µM and a TGI (MOLT-4 leukemia) greater than 100 µM. It also gave a TGI (NCI-H226 lung) greater than 100 µM, a TGI (OVCAR-8 ovarian) greater than 100 µM and a TGI (SF-295 CNS) greater than 100 µM. The TGI (SK-OV-3 ovarian) was greater than 100 µM.

Cc1ccccc1C(C#N)C(=O)C(=O)Nc1nc([N+](=O)[O-])cs1 (configuration not stated) gave a TGI (A549 NSCLC) greater than 100 µM, a TGI (NCI-H226 lung) greater than 100 µM and a TGI (OVCAR-8 ovarian) greater than 100 µM. The TGI (SK-OV-3 ovarian) was greater than 100 µM and the TGI (TK-10 renal) was greater than 100 µM.

C=CCSC[C@H](NC(=O)COc1ccccc1)C(=O)NC(C(=O)OCc1ccc([N+](=O)[O-])cc1)=C(C)C showed a TGI (A549 NSCLC) greater than 100 µM, a TGI (K-562 leukemia) greater than 100 µM and a TGI (MOLT-4 leukemia) of 88.1 µM. It also gave a TGI (NCI-H226 lung) greater than 100 µM, a TGI (OVCAR-8 ovarian) greater than 100 µM and a TGI (SF-295 CNS) greater than 100 µM. For the same molecule, the TGI (SK-OV-3 ovarian) was greater than 100 µM.
